Experimental data taken from the NIST ThermoML archive (doi:10.1016/j.tca.2006.04.016).

Conditions: 101.33 kPa, Liquid, Vibrating tube method

CN(C)CCCN [N,N-dimethyl-1,3-propanediamine]
Conditions	mass density [kg/m3]
278.15 K	830.37
278.65 K	829.93
279.15 K	829.49
279.65 K	829.05
280.15 K	828.61
280.65 K	828.17
281.15 K	827.73
281.65 K	827.29
282.15 K	826.84
282.65 K	826.4
283.15 K	825.96
283.65 K	825.52
284.15 K	825.08
284.65 K	824.64
285.15 K	824.2
285.65 K	823.76
286.15 K	823.32
286.65 K	822.88
287.15 K	822.44
287.65 K	822
288.15 K	821.56
288.65 K	821.12
289.15 K	820.67
289.65 K	820.23
290.15 K	819.79
290.65 K	819.35
291.15 K	818.91
291.65 K	818.47
292.15 K	818.03
292.65 K	817.58
293.15 K	817.14
293.65 K	816.7
294.15 K	816.26
294.65 K	815.82
295.15 K	815.37
295.65 K	814.93
296.15 K	814.49
296.65 K	814.05
297.15 K	813.6
297.65 K	813.16
298.15 K	812.72
298.65 K	812.27
299.15 K	811.83
299.65 K	811.39
300.15 K	810.94
300.65 K	810.5
301.15 K	810.06
301.65 K	809.61
302.15 K	809.17
302.65 K	808.72
303.15 K	808.28
303.65 K	807.84
304.15 K	807.39
304.65 K	806.95
305.15 K	806.5
305.65 K	806.06
306.15 K	805.61
306.65 K	805.17
307.15 K	804.72
307.65 K	804.28
308.15 K	803.83
308.65 K	803.39
309.15 K	802.94
309.65 K	802.5
310.15 K	802.05
310.65 K	801.61
311.15 K	801.16
311.65 K	800.72
312.15 K	800.27
312.65 K	799.82
313.15 K	799.38
313.65 K	798.93
314.15 K	798.48
314.65 K	798.04
315.15 K	797.59
315.65 K	797.14
316.15 K	796.69
316.65 K	796.25
317.15 K	795.8
317.65 K	795.35
318.15 K	794.9
318.65 K	794.45
319.15 K	794.01
319.65 K	793.56
320.15 K	793.11
320.65 K	792.66
321.15 K	792.21
321.65 K	791.76
322.15 K	791.31
322.65 K	790.86
323.15 K	790.41
323.65 K	789.96
324.15 K	789.52
324.65 K	789.06
325.15 K	788.62
325.65 K	788.17
326.15 K	787.72
326.65 K	787.26
327.15 K	786.81
327.65 K	786.36
328.15 K	785.91
328.65 K	785.46
329.15 K	785.01
329.65 K	784.56
330.15 K	784.11
330.65 K	783.65
331.15 K	783.2
331.65 K	782.75
332.15 K	782.3
332.65 K	781.84
333.15 K	781.39
333.65 K	780.94
334.15 K	780.49
334.65 K	780.03
335.15 K	779.58
335.65 K	779.12
336.15 K	778.67
336.65 K	778.22
337.15 K	777.76
337.65 K	777.31
338.15 K	776.85
338.65 K	776.4
339.15 K	775.94
339.65 K	775.49
340.15 K	775.03
340.65 K	774.57
341.15 K	774.11
341.65 K	773.66
342.15 K	773.2
342.65 K	772.74
343.15 K	772.29
343.65 K	771.83
344.15 K	771.37
344.65 K	770.91
345.15 K	770.45
345.65 K	769.99
346.15 K	769.53
346.65 K	769.08
347.15 K	768.62
347.65 K	768.16
348.15 K	767.7
348.65 K	767.24
349.15 K	766.78
349.65 K	766.32
350.15 K	765.86
350.65 K	765.4
351.15 K	764.94
351.65 K	764.48
352.15 K	764.02
352.65 K	763.56
353.15 K	763.1
353.65 K	762.64
354.15 K	762.17
354.65 K	761.71
355.15 K	761.25
355.65 K	760.79
356.15 K	760.33
356.65 K	759.86
357.15 K	759.4
357.65 K	758.94
358.15 K	758.48
358.65 K	758.01
359.15 K	757.55
359.65 K	757.08
360.15 K	756.62
360.65 K	756.15
361.15 K	755.69
361.65 K	755.22
362.15 K	754.75
362.65 K	754.28
363.15 K	753.82
